Holding throughout (assay): inhibition of tumour cell growth, NCI panel, 48 h
In assay [1] the test system is MALME-3M melanoma.
Assay [2] concerns NCI/ADR-RES ovarian.
Assay [3] deals with SF-539 CNS.
Assay [4] has as its system A549 NSCLC.
Assay [5] concerns RPMI-8226 leukemia.
The subject of assay [6] is TK-10 renal.
Assay [7] has as its system K-562 leukemia.
The test system of assay [8] is SK-MEL-28 melanoma.
The subject of assay [9] is SW-620 colon.
For assay [10], the system named is UACC-257 melanoma.
The test system of assay [11] is CAKI-1 renal.
For assay [12], the system named is IGROV1 ovarian.
In assay [13] the test system is SF-268 CNS.
The subject of assay [14] is MOLT-4 leukemia.
The subject of assay [15] is HT29 colon.
For assay [16], the system named is MDA-N.
For assay [17], the system named is MCF7 breast.
Assay [18] concerns HCC-2998 colon.
Assay [19] concerns T-47D breast.

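48-hour exposure; five concentrations; linearly interpolated endpoints. The concentration for full growth arrest is given as TGI.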

As to `Cc1ccc2c(c1C)C(=O)/C(=C/c1cccc(C)c1C(=O)O)C2`, the TGI in [1], in [2], in assay [3], in assay [4], in [5] and in assay [6] was over 100 µM throughout. Also, the TGI in assay [7], in assay [8], in [9], in [10], in assay [11] and in assay [12] was over 100 µM each time. Also, the TGI in assay [13] was over 100 µM; in [14], over 100 µM; in assay [15], over 100 µM; in assay [16], over 100 µM; in assay [17], over 65.2 µM; in assay [18], over 100 µM. In assay [19], this molecule displayed a TGI of over 100 µM.

Turning to `O=S(=O)(O)c1cc(S(=O)(=O)O)c2c(N=Nc3ccc(N=Nc4ccccc4)cc3)c(O)ccc2c1`, the TGI in assay [1], in assay [2], in assay [3], in [4], in assay [5] and in assay [6] was over 100 µM each time. Besides, the TGI in assay [7], in [8], in assay [9], in [10], in assay [11] and in [12] was over 100 µM each time. Further, the TGI in [13], in [14], in assay [15], in [16], in [17] and in assay [18] was over 100 µM in each case. The TGI in assay [19] was over 100 µM.

As for `Cc1ccc(/C=C2\N=C(N3CCCC(CO)C3)NC2=O)cc1` (stereo unspecified), the TGI in assay [1], in [2], in [3], in assay [4], in [5] and in assay [6] was over 100 µM each time. For the same molecule, the TGI in [7], in assay [8], in [9], in [10], in assay [11] and in assay [12] was over 100 µM each time. The TGI in assay [13], in [14], in [15], in [16], in [17] and in [18] was over 100 µM each time. Further, the TGI in [19] is over 100 µM.

For the molecule `CCOC(=O)C1=C(C)N(Cc2ccccc2)C2(O)C=CC(=O)C3=C(O)c4ccccc4C(=O)C312` (stereo unspecified), the TGI in assay [1] was 8.35 µM; in assay [2] it was 0.708 µM; in assay [3], 32.6 µM; in assay [4] it was 39.8 µM; in [5], 31.2 µM; in [6], 32.5 µM. For the same molecule, the TGI in assay [7] was 61 µM; in [8], over 100 µM; in [9] it was 28.2 µM; in assay [10] it was 32.6 µM; in [11] it was 37.2 µM; in [12], 17.5 µM. The TGI in assay [13] is 23.7 µM; in [14], over 100 µM; in assay [15], over 100 µM; in assay [16], 22.3 µM; in assay [17] it was 3.44 µM; in assay [18], 31.1 µM. The TGI in assay [19] worked out at 45 µM.

With `CCOC(=O)Cn1c(=O)c(C)cn(COCCO)c1=O`, the TGI in [1], in [2], in assay [3], in assay [4], in assay [5] and in assay [6] was over 100 µM throughout. In addition, the TGI in assay [7], in [8], in [9], in assay [10], in [11] and in [12] was over 100 µM each time. For the same molecule, the TGI in [13], in assay [14], in [15], in [16], in [17] and in assay [18] was over 100 µM each time. Also, the TGI in assay [19] is over 100 µM.

In the case of `O=c1cc(N2CCCC2)[nH]c(=O)n1-c1ccc(Cl)cc1`, the TGI in assay [1], in [2], in assay [3], in [4], in [5] and in assay [6] was over 100 µM each time. Moreover, the TGI in [7], in [8], in assay [9], in assay [10], in assay [11] and in assay [12] was over 100 µM throughout. For the same molecule, the TGI in assay [13], in assay [14], in assay [15], in assay [16], in assay [17] and in [18] was over 100 µM each time. The same molecule returned a TGI in [19] of over 100 µM.

In the case of `O=S(=O)(O)c1ccc2c(N=Nc3ccc(Sc4ccc(N=Nc5c(O)ccc6cc(S(=O)(=O)O)ccc56)cc4)cc3)c(O)ccc2c1`, the TGI in assay [1], in assay [2], in assay [3], in assay [4], in assay [5] and in assay [6] was over 100 µM each time. For the same molecule, the TGI in assay [7], in assay [8], in assay [9], in [10], in [11] and in assay [12] was over 100 µM each time. Besides, the TGI in [13], in [14], in assay [15], in assay [16], in [17] and in assay [18] was over 100 µM each time. The molecule also displayed a TGI in [19] of over 100 µM.

Take `O=P(O)(O)CN1CCNCCN(CP(=O)(O)O)CC1`: the TGI in assay [1] was over 100 µM; in [2], over 44.9 µM; in assay [3] it was over 100 µM; in assay [4], 58.7 µM; in [5], over 100 µM; in assay [6] it was over 100 µM. Moreover, the TGI was over 76.6 µM in assay [7]; over 100 µM in assay [8]; over 100 µM in assay [9]; over 100 µM in [10]; over 100 µM in [11]; over 100 µM in assay [12]. The TGI is over 100 µM in [13]; over 100 µM in assay [14]; over 100 µM in assay [15]; over 72.9 µM in assay [16]; over 100 µM in assay [17]; over 100 µM in assay [18]. The same molecule yielded a TGI in assay [19] of over 100 µM.

As for `Nc1cc2c3c(cccc3c1)C(=O)N(c1ccc(OCCN3CCCC3)cc1)C2=O`, the TGI in [1] is 35.9 µM; in assay [2], over 57 µM; in assay [3], 27.8 µM; in assay [4] it was 50.8 µM; in [5], 56.3 µM; in assay [6], 35.6 µM. The TGI was 49.2 µM in assay [7]; 47 µM in [8]; 97 µM in assay [9]; 31.5 µM in [10]; over 61.5 µM in [11]; 36.4 µM in assay [12]. For the same molecule, the TGI is over 59.7 µM in assay [13]; 55.8 µM in [14]; 29.8 µM in assay [15]; 34.7 µM in [16]; 31.5 µM in assay [17]; 31.3 µM in assay [18]. The same molecule displayed a TGI in assay [19] of 51.6 µM.

For the molecule `CC[C@@]1(O)C(=O)OCc2c1cc1n(c2=O)Cc2c-1nc1ccccc1c2/C=N\NC(=O)C(N)Cc1c[nH]c2ccccc12` (stereo partly specified), the TGI in assay [1] was over 48.9 µM; in assay [2] it was over 35.6 µM; in [3] it was 0.584 µM; in assay [4], 25.9 µM; in [5] it was 17.3 µM; in assay [6], over 100 µM. Moreover, the TGI is over 100 µM in [7]; over 100 µM in assay [8]; over 100 µM in assay [9]; over 38 µM in assay [10]; 2.52 µM in [11]; over 81.5 µM in [12]. The TGI in assay [13] is 19.6 µM; in assay [14], 1.18 µM; in assay [15] it was over 100 µM; in assay [16], over 100 µM; in assay [17] it was over 55.7 µM; in assay [18], over 65.7 µM. The TGI in [19] is over 100 µM.

As to `CC(C)NC(=O)OCc1c(COC(=O)NC(C)C)c(-c2cc[n+](COC(=O)C3CCCCC3)cc2)n2c1CCC2`, the TGI in assay [1], in assay [2], in [3], in assay [4], in [5] and in [6] was over 100 µM throughout. Besides, the TGI in [7], in assay [8], in assay [9], in assay [10], in assay [11] and in assay [12] was over 100 µM in each case. In addition, the TGI in assay [13], in [14], in [15], in assay [16], in assay [17] and in assay [18] was over 100 µM in each case. Also, the TGI in assay [19] was over 100 µM.

In the case of `Cc1ccc(S[C@@H](C)[C@@](O)(C(N)=O)c2ccccc2)cc1`, the TGI was 42.8 µM in assay [1]; 49.5 µM in [2]; 60.3 µM in [3]; over 100 µM in [4]; 74.8 µM in [5]; over 100 µM in assay [6]. Further, the TGI in [7] is 44.5 µM; in assay [8], over 100 µM; in assay [9] it was over 100 µM; in assay [10], over 100 µM; in [11], 30.7 µM; in assay [12], 15.5 µM. For the same molecule, the TGI in [13] was over 100 µM; in [14], 33.3 µM; in [15], over 100 µM; in assay [16], over 100 µM; in assay [17] it was over 100 µM; in [18], over 100 µM. In assay [19], the TGI was over 100 µM.

On to `COc1ccccc1NC(=S)N/N=C/c1cccc(C)n1`, for which the TGI in [1] is over 81.2 µM; in assay [2] it was over 31.1 µM; in assay [3], 28.1 µM; in [4], 86.9 µM; in assay [5], over 100 µM; in assay [6] it was over 100 µM. For the same molecule, the TGI is over 100 µM in assay [7]; over 100 µM in [8]; over 100 µM in assay [9]; over 100 µM in assay [10]; 74.7 µM in assay [11]; over 95.8 µM in assay [12]. For the same molecule, the TGI in assay [13], in assay [14], in [15], in [16], in assay [17] and in assay [18] was over 100 µM in each case. The TGI in [19] was over 100 µM.

For `Cc1cc(=O)oc2c(CNC(CC(C)C)C(=O)O)c(O)ccc12` (stereo unspecified), the TGI in assay [1], in assay [2], in [3], in assay [4], in assay [5] and in assay [6] was over 100 µM throughout. The TGI in assay [7], in [8], in [9], in assay [10], in assay [11] and in assay [12] was over 100 µM each time. The TGI in [13], in [14], in assay [15], in assay [16], in [17] and in assay [18] was over 100 µM each time. The TGI in assay [19] was over 100 µM.

Values taken from PubChem BioAssay (NCI).
